Each structure is given as a SMILES string.

The conditions of data set [1]: according to WO2005/005426; cited from earlier work.
A short description of data set [2]: co-dissolution of API of palbociclib and acidic auxiliary material in a solvent. The format is physicochemical. Conditions: co-dissolved with pharmaceutically acceptable acidic auxiliary material; solvent e.g. water. An excerpt: The present invention also provides a method for the preparation of a solid dispersion, comprising: mixing palbociclib with an acidic auxiliary material; adding a solvent (including but not limited to water, ethanol, acetone and a mixture thereof, preferably water or a mixture thereof with other solvents, e.g. the mixture of water and ethanol, the mixture of water and acetone, etc.) for dissolving or dispersing; adding a hydrophilic high-molecular material, dissolving or dispersing evenly; and removing the solvent by heating, for example, evaporating the solvent to dry by vacuum drying or heating drying or freeze drying or other drying ways, in order to achieve the purpose of dispersing the drug in the high-molecular solid carrier to a high degree, so as to prepare the solid dispersion.
In the preparation of the solid dispersion of the present invention, the concentration of the API of palbociclib in the solvent (e.g., water) can be up to 50 mg/ml or more, thereby improving the preparation efficiency of the solid dispersion.

Data set [3] in a line: dynamic solubility test in buffer at pH 6.0 with stirring. The format is physicochemical. Conditions: phosphate buffer pH 6.0, stirring for 60 minutes.
Experimental: 62.5 mg of the solid dispersion prepared in Example 3 (containing 12.5 mg of the API of palbociclib in proportion) and 12.5 mg of the API of palbociclib were weighed separately, placed into two 100 ml beakers, respectively, and marked with T1 and T2. 90 ml of phosphate buffer (pH 6.0) was added to the two beakers respectively and a magnetic stir bar was placed therein. The two beakers were placed on a magnetic stirrer separately. 1 ml of the solution was removed separately from each of the beakers at the time points of 5, 10, 20, 40, and 60 minutes and filtered through a 0.45 μm micro PES polyethersulfone filter membrane. The filtrate was analyzed by high performance liquid chromatography, the content of the API of palbociclib was determined and the dissolution percentage was calculated.

As for `CC(=O)c1c(C)c2cnc(Nc3ccc(N4CCNCC4)cn3)nc2n(C2CCCC2)c1=O` [API of palbociclib, palbociclib], the solubility in water entry in data set [1] is given as “poor”. Further, in data set [2], the “concentration of the API of palbociclib in the solvent” value was ≥ 50000 µg/mL. For the same molecule, in data set [3], the “dynamic solubility (dissolution percentage)” value worked out at 58%.

The values above are taken from patent US11464779B2, “Pharmaceutical formulation of palbociclib and a preparation method thereof” (Shenzhen Pharmacin Co., Ltd., priority 2016, dated 2022).
